Results taken from patent publication US20160340659A1, “ACTIN BINDING PEPTIDES AND COMPOSITIONS COMPRISING SAME FOR INHIBITING ANGIOGENESIS AND TREATING MEDICAL CONDITIONS ASSOCIATED WITH SAME” (YISSUM RESEARCH AND DEVELOPMENT COMPANY OF THE HEBREW …, priority 2014, published 2016).
Entries after “also recorded” stand apart in the source; their conditions may differ. Where no end group is shown, it is not given here.

Legend:
HUVEC = HUVEC tube formation assay on Matrigel; format: cell-based, human; conditions: peptides at 2 μM, compared to Control; for inhibition of VEGF-induced tube formation: 1 μg/ml VEGF; for inhibition of angiogenin-induced tube formation: 1 μg/ml angiogenin
Method: FIGS. 6A-6D illustrate in-vitro inhibition of angiogenesis in the HUVEC model by T2 peptides. HUVEC cells plated on Matrigel™ were exposed to 2 μM of T2 peptides A103-Q159 (SEQ ID NO: 60), K108-K133 (SEQ ID NO: 57) or K108-L123 (SEQ ID NO: 67), in addition to 1 μg/ml of angiogenin or VEGF as the angiogenic agent, as indicated. Control wells received PBS. FIG. 6B-Results were assessed by imaging software, and quantified, and expressed relative to tube formation with angiogenin or VEGF alone (100%) Column 1=angiogenin, column 2=angiogenin+SEQ ID NO: 60, column 3=angiogenin+SEQ ID NO: 57, column 4=angiogenin+[…], Column 5=VEGF, column 6=VEGF+SEQ ID NO: 60, column 7=VEGF+SEQ ID NO: 57, column 8=VEGF+[…]. FIGS. 6C and 6D illustrate the inhibitory effect of truncated human T2 polypeptide trT2-49m (SEQ ID NO: 129) on angiogenin and VEGF induced HUVEC tube formation. Note the significant inhibition of HUVEC tube formation by all of the T2 peptides assayed, and in particular, K108-K133 (SEQ ID NO: 57);
HUVEC (CC-2519)(fresh or commercially provided) are maintained in M199 rrrediurn supplemented with 20% FCS, 1% glutamine, 1% antibiotic-antimycotic solution, ECGF, and heparin, plated in a 96-well plate (14×10^3 cells/well) previously coated with growth factor-depleted Matrigel™ (BD Biosciences), in M199 medium containing 5% FCS and 0.005% ECGF. The wells are supplemented with candidate T2 RNase peptides or PBS, and angiogenic growth factors (1 μg/ml angiogenin, bFGF or VEGF) to a final volume of 120 pl. Plates are incubated (overnight), photographed and the extent of tube formation (angiogenesis) assessed.

actin = actin (Oryctolagus cuniculus, UniProt P68135); experiment: Actin binding solid phase assay; conditions: immobilized actin, 0-500 ng/100 μl well
Method: 96-well plates (MaxiSorp® flat-bottom 96-well plate, Fisher Scientific Inc., Fair Lawn, N.J.) were coated with 500 ng actin in 100 μl carbonate-bicarbonate buffer (pH 9.5) for 1 h at 37° C. The plate was washed once with TBS and then blocked with 3% BSA in 200 μl TBS buffer at 37° C., for 1 h. Wells were then washed once with 250 μl TBS. trT2-49, trT2-49m or each of the 29 peptides were added at 1:2 dilutions in 100 μl TBS, starting from 500 ng/well, incubated for 1 h at 37° C. and then washed three times with TBS containing 0.1% Tween-20 (TBST). Each well was then treated with 100 μl rabbit anti-trT2-49 diluted 1:500 in TBS and incubated for 1 h at 37° C. The wells were washed three times with TBST and then incubated with 100 μl goat anti-rabbit IgG-HRP (Jackson ImmunoResearch, West Grove, Pa.) diluted 1:10,000 in TBS, for 1 h at 37° C. Wells were then washed twice with TBST, and once with TBS before 100 μl substrate (1-step Ultra TMB-ELISA, Pierce, Fisher Scientific Inc.) were added. Absorbance at 655 nm was measured 10 min thereafter using a Power Wave 200 Microplate Scanning Spectrophotometer (Bio-Tek Instrument, Winooski, Vt.). Affinity was evaluated by double reciprocal plotting.

[1] = target: T1, G-Actin from rabbit muscle (Oryctolagus cuniculus, UniProt P68135); experiment: ELISA actin binding assay (solid-phase, immobilized actin); conditions: immobilized G-actin 500 ng/well
T1 construct: G-Actin from rabbit muscle; purchased Sigma-Aldrich, St Louis, Mo; host or cells: rabbit muscle (tissue-derived)
Method: Peptides corresponding to a variety of amino acid sequences in the region of human RNASET2 comprising helix 5 and helix 6 were synthesized and assayed for actin binding in an ELISA actin binding assay.
Solid-phase ELISA for RNASET2 peptide binding to immobilized actin was performed as modified from Mejean 1987 (Biochem. J. 244: 571-577) and Mejean 1992 (Eur. J Biochem. 209: 555-562). All steps were conducted at 37° C. Immuno-96 Microwell™ solid plates (Thermo Fisher Scientific, MA) coated with 500 ng/well of G-Actin from rabbit muscle (Sigma-Aldrich, St Louis, Mo.) in 100 ul of 0.05 M carbonate buffer, pH 9.5 (Sigma-Aldrich, Mo), incubated for 1 h and washed with 250 ul/well Tris Buffered Saline (TBS) (Sigma-Aldrich). The wells were blocked with 3% bovine serum albumin (BSA, Sigma-Aldrich) in 200 ul/well TBS for another 1 hour and washed with 250 ul/well TBS. The candidate peptides are then added at various concentrations (for example, serial dilutions giving 500, 250 or 125 ng/well) in 100 ul/well Tris Buffered Saline (TBS), incubated for 1 hour and washed 3 times with 250 ul/well TBS containing 0.05% Tween®20 (TBST, Sigma-Aldrich). Anti-T2 RNase (rabbit anti-rhtrRNASET2, Anilab, Israel, whole serum or antiserum) was then added, incubated for 1 hour and the plates washed 3 times with 250 ul/well TBST. Labeled second antibody [peroxidase-conjugated affinity pure goat-anti rabbit IgG (Jackson, Pa.)] was added at a dilution of 1:10:000 in 100 ul/well TBS, incubated for 1 hour and the plates washed twice with 250 ul/well TBST. After an additional wash with 250 ul/well TBS, 1-Step Ultra TMB-ELISA (TMB-3,3′,5,5′ Tetramethylbenzidine) (Thermo-Scientific) was added (100 ul/well) and after 15-25 min of incubation, the reaction was read at A650 using Infinite F50-TECAN ELISA READER (TECAN, Austria). Each assay was performed in triplicates.

Sequence | inhibition of VEGF-induced tube formation (HUVEC) [%] | inhibition of angiogenin-induced tube formation (HUVEC) [%] | actin binding in solid-phase assay (actin; listed as K108-K133) | actin binding on ELISA [1] | actin binding in solid-phase assay (actin; listed as A103-Q159)
KKYFGRSLELYRELDLNSVLLKLGIK [SEQ ID NO: 57, 26-amino acid peptide representing amino acids 108-133 of RNASET2] | ~75 | ~50 | most effective actin binding peptides amongst the 29 candidate peptides; also recorded: effective and concentration-dependent binding of actin | strong actin binding | 
ALNSQKKYFGRSLELYRELDLNSVLLKLGIKPSINYYQVADFKDALARVYGVIPKIQ [SEQ ID NO: 60] | ~40 | ~40 |  | strong | most effective actin binding peptides amongst the 29 candidate peptides; also recorded: effective and concentration-dependent binding of actin
